pEC50: −log10 of the molar value.
Experiment: Potency to inhibit A1-adenosine receptor mediated cAMP accumulation in DDT1 MF-2 cells
Type: functional, cell-based
Details: Mesocricetus auratus

CCNC(=O)[C@H]1OC(n2cnc3c(NC4CC=CCC4)ncnc32)[C@H](O)[C@@H]1O (some centres undefined)
pEC50: 8.96

CCNC(=O)[C@H]1OC(n2cnc3c(NCC4CC5CC4C4OC54)ncnc32)[C@H](O)[C@@H]1O (some centres undefined)
pEC50: 6.80

CCNC(=O)[C@H]1OC(n2cnc3c(NC4CC5CC4C4OC54)[n+]([O-])cnc32)[C@H](O)[C@@H]1O (some centres undefined)
pEC50: 6.66

CCNC(=O)[C@H]1OC(n2cnc3c(NCC4CC5C=CC4C5)ncnc32)[C@H](O)[C@@H]1O (some centres undefined)
pEC50: 7.46

CCNC(=O)[C@H]1OC(n2cnc3c(NCCN4CCOCC4)ncnc32)[C@H](O)[C@@H]1O (some centres undefined)
pEC50: 7.74

OC[C@H]1OC(n2cnc3c(NCC4CCCCO4)ncnc32)[C@H](O)[C@@H]1O (some centres undefined)
pEC50: 5.51

CCNC(=O)[C@H]1OC(n2cnc3c(NCc4ccco4)ncnc32)[C@H](O)[C@@H]1O (some centres undefined)
pEC50: 6.58

OC[C@H]1OC(n2cnc3c(NC4CC=CCC4)ncnc32)[C@H](O)[C@@H]1O (some centres undefined)
pEC50: 8.14

OC[C@H]1OC(n2cnc3c(NC4CCC5OC5C4)ncnc32)[C@H](O)[C@@H]1O (some centres undefined)
pEC50: 7.43

OC[C@H]1OC(n2cnc3c(NCC4CC5C=CC4C5)ncnc32)[C@H](O)[C@@H]1O (some centres undefined)
pEC50: 6.73

CCNC(=O)[C@H]1OC(n2cnc3c(NC4CCC5OC5C4)ncnc32)[C@H](O)[C@@H]1O (some centres undefined)
pEC50: 8.23

OC[C@H]1OC(n2cnc3c(NCC4CC5CC4C4OC54)ncnc32)[C@H](O)[C@@H]1O (some centres undefined)
pEC50: 6.27

CCNC(=O)[C@H]1OC(n2cnc3c(NCC4CCCCO4)ncnc32)[C@H](O)[C@@H]1O (some centres undefined)
pEC50: 6.19

OC[C@H]1O[C@@H](n2cnc3c(NC4CCCC4)ncnc32)[C@H](O)[C@@H]1O [N6-CYCLOPENTYLADENOSINE]
pEC50: 8.55

From ChEMBL document CHEMBL1131274, “N6-(5,6-epoxynorbornyl)adenosine analogs as A1 adenosine agonists” (Bioorg Med Chem Lett, 1998)
